These results are taken from ChEMBL document CHEMBL3779782, “Identification of human telomerase inhibitors having the core of N-acyl-4,5-dihydropyrazole with anticancer effects” (Bioorg Med Chem Lett, 2016).

A value given as a limit tells only on which side of the number the result lay.

Usually EC50 stands for the concentration needed to bring the measured effect to its halfway point. Broadly, the IC50 is the concentration that gives 50% inhibition.

Test [1] deals with HepG2. The test can be described thus: Antiproliferative activity against human HepG2 cells after 48 hrs by MTT assay. It is filed as functional, cell-based. Conditions: HepG2, 48 h.
Test [2] is described as follows: Antiproliferative activity against human SGC7901 cells after 48 hrs by MTT assay. Type of test: functional, cell-based. Conditions: SGC-7901, 48 h. A general note: Tetrazolium dyes change colour on reduction, which living cells bring about.
The nature of test [3]: Antiproliferative activity against human MGC803 cells after 48 hrs by MTT assay. It is filed as functional, cell-based. The conditions noted are these: MGC-803, 48 h.
Test [4] deals with Telomerase reverse transcriptase (Homo sapiens, UniProt O14746). The test can be described thus: Inhibition of telomerase in human MGC803 cells after 24 hrs by TRAP-PCR-ELISA method. Type of test: cell-based, MGC-803.
Sequence of Telomerase reverse transcriptase (O14746 whole entry): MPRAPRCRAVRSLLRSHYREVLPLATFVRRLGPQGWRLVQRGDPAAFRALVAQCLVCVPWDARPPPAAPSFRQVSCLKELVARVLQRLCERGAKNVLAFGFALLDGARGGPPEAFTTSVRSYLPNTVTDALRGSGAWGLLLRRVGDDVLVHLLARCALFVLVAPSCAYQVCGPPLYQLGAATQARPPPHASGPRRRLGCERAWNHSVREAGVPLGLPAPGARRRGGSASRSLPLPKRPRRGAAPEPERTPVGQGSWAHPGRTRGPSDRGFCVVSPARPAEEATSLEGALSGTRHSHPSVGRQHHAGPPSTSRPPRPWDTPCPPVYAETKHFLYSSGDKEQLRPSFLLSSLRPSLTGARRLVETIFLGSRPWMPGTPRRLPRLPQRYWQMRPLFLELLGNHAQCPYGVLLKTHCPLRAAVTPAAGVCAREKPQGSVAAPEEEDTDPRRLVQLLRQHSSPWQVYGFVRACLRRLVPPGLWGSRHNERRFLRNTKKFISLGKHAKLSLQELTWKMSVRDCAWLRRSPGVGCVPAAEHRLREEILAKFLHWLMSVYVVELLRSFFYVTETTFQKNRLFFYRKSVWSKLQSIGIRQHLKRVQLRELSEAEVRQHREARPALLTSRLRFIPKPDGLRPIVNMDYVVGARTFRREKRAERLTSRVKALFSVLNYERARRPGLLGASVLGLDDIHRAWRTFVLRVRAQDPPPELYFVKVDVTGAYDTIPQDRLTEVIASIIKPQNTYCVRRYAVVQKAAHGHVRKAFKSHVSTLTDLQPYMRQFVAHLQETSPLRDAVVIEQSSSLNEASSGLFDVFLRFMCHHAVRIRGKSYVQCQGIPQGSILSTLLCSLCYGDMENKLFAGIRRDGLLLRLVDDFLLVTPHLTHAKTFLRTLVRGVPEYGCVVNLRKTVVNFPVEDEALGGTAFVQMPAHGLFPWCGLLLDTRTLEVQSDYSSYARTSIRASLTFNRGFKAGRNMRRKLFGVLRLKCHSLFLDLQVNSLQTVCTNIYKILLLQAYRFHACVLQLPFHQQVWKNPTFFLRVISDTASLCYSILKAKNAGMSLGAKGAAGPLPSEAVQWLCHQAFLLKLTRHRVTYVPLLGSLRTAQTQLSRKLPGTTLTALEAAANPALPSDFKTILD

Take `CC1=NN(S(=O)(=O)c2ccccc2I)C(c2cc(Br)ccc2O)C1` (stereo not given): the EC50 was more than 60 µM in test [1], more than 60 µM in test [2] and 52.5 µM in test [3].
On to `CC1=NN(C(=O)CCl)C(c2cc(F)ccc2O)C1` (stereo not given), for which the values for the EC50 in test [1], in test [2] and in test [3] were 4.21 µM, 7 µM and 6.87 µM, respectively.
The like results for `COc1ccc(S(=O)(=O)N2N=C(C)CC2c2cc(Br)ccc2O)cc1` (stereo not given) were, in that order, 38.2 µM, 21.1 µM and 20.3 µM.
Taken in the same sequence, the figures for `CC1=NN(S(=O)(=O)c2ccc(F)cc2)C(c2cc(Br)ccc2O)C1` (stereo not given) were 50.1 µM, more than 60 µM and 15.5 µM.
Regarding `CC1=NN(S(=O)(=O)c2ccc(Cl)cc2Cl)C(c2cc(Br)ccc2O)C1` (stereo not given), the EC50 in test [1] is 45.2 µM; in test [2] it was more than 60 µM; in test [3] it was 37.9 µM.
Turning to `CC1=NN(C(=O)C(F)(F)F)C(c2ccccc2O)C1` (stereo not given), the EC50 in test [1] turned out to be 4.8 µM; in test [2], 2.06 µM; in test [3], 2.89 µM. In test [4], this molecule returned an IC50 of 1.86 µM.
The like results for `CC1=NN(S(=O)(=O)c2ccc(C(F)(F)F)cc2)C(c2cc(Br)ccc2O)C1` (stereo not given) were, in that order, 22.1 µM, 16.3 µM, 30 µM and more than 60 µM.
For the molecule `CC1=NN(C(=O)CBr)C(c2ccccc2O)C1` (stereo not given), the EC50 in test [1] was 14.4 µM; in test [2], 4.18 µM; in test [3], 3.65 µM.
`CC1=NN(S(=O)(=O)c2ccc(Cl)cc2)C(c2cc(Br)ccc2O)C1` (stereo not given): the EC50 in test [1], in test [2] and in test [3] was more than 60 µM throughout.
Consider `CC1=NN(S(=O)(=O)c2ccccc2)C(c2cc(Br)ccc2O)C1` (stereo not given), for which the EC50 is more than 60 µM in test [1], 55.6 µM in test [2] and more than 60 µM in test [3].
In the case of `COc1ccc(C(=O)N2N=C(C)CC2c2ccccc2O)cc1` (stereo not given), the values for the EC50 in test [1], in test [2] and in test [3] were 40.3 µM, 45.7 µM and 38.5 µM, respectively. In test [4], this molecule came in with an IC50 of 25 µM.
With `CC1=NN(S(=O)(=O)c2ccccc2C)C(c2cc(Br)ccc2O)C1` (stereo not given), the EC50 in test [1] was 39.3 µM; in test [2] it was 48.1 µM; in test [3], more than 60 µM.
Turning to `CC1=NN(C(=O)CCl)C(c2cc(Cl)ccc2O)C1` (stereo not given), the values for the EC50 in test [1], in test [2] and in test [3] were 20.3 µM, 14 µM and 12.2 µM, respectively.
Take `CC1=NN(C(=O)c2ccc(F)cc2)C(c2ccccc2O)C1` (stereo not given): the EC50 came to 39.2 µM in test [1], 50.3 µM in test [2] and 35.4 µM in test [3]. In test [4], the midpoint of inhibition, the IC50, lay at 29.8 µM.
On to `CC1=NN(C(=O)CCl)C(c2cc(Br)ccc2O)C1` (stereo not given), for which the values for the EC50 in test [1], in test [2] and in test [3] were 12.3 µM, 9.21 µM and 10.5 µM, respectively.
Regarding `CC1=NN(C(=O)CF)C(c2ccccc2O)C1` (stereo not given), the EC50 was found to be 9.41 µM in test [1], 8.6 µM in test [2] and 4.26 µM in test [3]. In test [4], the IC50 was determined as 4 µM.
In the case of `CC1=NN(S(=O)(=O)c2ccc([N+](=O)[O-])cc2)C(c2cc(Br)ccc2O)C1` (stereo not given), the EC50 in test [1] was more than 60 µM; in test [2], 27.3 µM; in test [3] it was 22.2 µM.
Taken in the same sequence, the figures for `O=c1[nH]cc(F)c(=O)[nH]1` [FLUOROURACIL] were 2.21 µM, 7.03 µM and 3.35 µM.
With `CC[n+]1c(-c2ccccc2)c2cc(N)ccc2c2ccc(N)cc21` [HOMIDIUM BROMIDE], in test [4], 2.18 µM corresponded to half-maximal inhibition (IC50).
